{"source": "patent US20210145964A1", "about": "“STROMA-TARGETING TREATMENT FOR PATIENTS WITH ELEVATED ADAM12 LEVELS” (Academisch Medisch Centrum, priority 2019, published 2021)", "tested_on": "metastatic adenocarcinoma of the pancreas", "assay": "MPACT phase III trial, overall survival by plasma ADAM12 group", "details": "poorest-outcome group: ADAM12 became detectable or increased at cycle 2", "protocol": "In the MPACT trial cohort, collection of plasma samples for biomarker development was optional and separate written consent was obtained for sample collection and biomarker analysis. […] All patients provided informed consent. […] Patients were randomized 1:1 (stratified by performance status, presence of liver metastases, and region) to receive nab-paclitaxel 125 mg/m^2 plus gemcitabine 1,000 mg/m^2 on days 1, 8, and 15 every 28 days or gemcitabine alone 1,000 mg/m^2 on days 1, 8, 15, 22, 29, 36, and 43 in 56 days (cycle 1) and then on days 1, 8, and 15 every 28 days (cycle≥2). Treatment continued until disease progression or unacceptable toxicity.\nMPACT trial blood samples were collected in EDTA tubes to chelate calcium and prevent blood clotting, and storage at −80° C. until analysis. To allow the analysis of these plasma samples using the ADAM12 DuoSet ELISA, recalcification was required. […]\nFor the MPACT cohort, baseline ADAM12 values were categorized into undetectable (0) and detectable (>0). The fold change of ADAM12 at cycle 2, day 1 (C2D1) from baseline (cycle 1, day 1; C1D1) was calculated by the results at C2D1 divided by the value at C1D1. […] All eligible samples were measured and no power calculation was performed. Overall survival was analyzed using Kaplan-Meier method and log-rank test. […]"}
{"smiles": "Nc1ccn([C@@H]2O[C@H](CO)[C@@H](O)C2(F)F)c(=O)n1", "note": "[gemcitabine]", "values": [{"measurement": "overall survival", "value": 6.9, "unit": "months"}]}
